Laboratory results taken from article PMC9681850, “Structural basis of synthetic agonist activation of the nuclear receptor REV-ERB” (Nature Communications, 2022).
“And” between values parts separate entries of the source, which are not always exact repeats. Equal values may be shown once.

Legend:
[1] = test system: proliferating C2C12 mouse myoblast cells; assay: cell viability by crystal violet staining; format: cell-based; settings: for cell viability (Fig. 2b source data): crystal violet, normalized to DMSO, single replicates; for reduction in cellular viability: proliferating C2C12 cells
Procedure: (§1) Cellular viability was tested in two cell types, human hepatocarcinoma HepG2 cells and proliferating C2C12 mouse myoblast cells.
(§2) Data are presented as mean ± SEM. Source data are available as a Source Data file.
(§3) The human hepatocellular carcinoma cell line, HepG2 cells (ATCC HB-8065), were cultured in 10% FBS 1% L-Glu MEM at 37 °C in a humidified atmosphere of 5% CO2. Prior to RNA extraction cells were treated with either DMSO or REV-ERB agonist for 24 h. The C2C12 proliferating mouse myoblast cells (ATCC, CRL-1772) were cultured in 10% FBS DMEM at 37 °C in a humidified atmosphere of 5% CO2. Prior to RNA extraction cells were treated with either DMSO or REV-ERB agonist for 24 h. […]
(§4) […] Media was removed, and cells were incubated with 0.5% crystal violet solution for 20 min at room temperature with mild agitation. Cells were washed four times with tap water before being air drying overnight. Cells were incubated in methanol for 20 min with mild agitation. Absorbance was read at 570 nm, and readings were normalized to vehicle (DMSO) treated cells.

REV-ERB regulated genes = test system: REV-ERB regulated genes; set-up: method as in ref 17 re-assessed; ref 48; settings: RNA-seq data of ref 17 re-assessed; cited from earlier work
BMAL1 in HepG2 cells = assay: expression of BMAL1 by qPCR; format: cell-based, human; set-up: key: Bmal1 expression normalized to Ppia; settings: 5 μM, 24 h, single replicates (n = 4)
Description: We next determined whether STL1267 can regulate characterized REV-ERB modulated genes in cell lines expressing REV-ERB naturally. Five micromolar doses of both drugs were used in cell-based experiments from this point on. REV-ERB is an established component of the core molecular clock repressing the expression of core clock gene Bmal1[6],[27] as well as others[28],[29]. […] In skeletal muscle, REV-ERB agonism increases the expression of a wide variety of genes important in mitochondrial function.
The human hepatocellular carcinoma cell line, HepG2 cells (ATCC HB-8065), were cultured in 10% FBS 1% L-Glu MEM at 37 °C in a humidified atmosphere of 5% CO2. Prior to RNA extraction cells were treated with either DMSO or REV-ERB agonist for 24 h. The C2C12 proliferating mouse myoblast cells (ATCC, CRL-1772) were cultured in 10% FBS DMEM at 37 °C in a humidified atmosphere of 5% CO2. Prior to RNA extraction cells were treated with either DMSO or REV-ERB agonist for 24 h. Prior to crystal violet cytotoxicity assay, cells were treated with either DMSO or REV-ERB agonist for 48 h.
Mouse tissue was homogenized using a bullet blender. DNA/protein was removed by phase separation using BCP/chloroform. The supernatant (RNA containing fraction) was collected, and RNA was precipitated using isopropanol. The RNA pellets were washed with 75% ethanol and resolubilized in RNAse free water. […]

HepG2 cells = assay: cell viability by crystal violet staining; format: cell-based, human; settings: for cell viability (Fig 2a source data): crystal violet, normalized to DMSO, single replicates
Procedure: as §1, §2, §3, §4

[2] = molecular target: NCoR1-VP16 fusion protein (a fragment of the NCoR1 corepressor); assay: two-hybrid reporter assay (Gal4-FL REV-ERBα/NCoR1-VP16); settings: HEK293 cells with Gal4UAS luciferase reporter; read at the highest dose shared with WT, log [STL1267] (µM) about 0.4; parent: est. 49; read off a plot

Row | Compound | cell viability (Fig. 2b source data) ([1]; C2C12, 1 uM) | cell viability (Fig. 2b source data) ([1]; C2C12, 2 uM) | cell viability (Fig. 2b source data) ([1]; C2C12, 5 uM) | cell viability (Fig. 2b source data) ([1]; C2C12, 10 uM) | cell viability (Fig. 2b source data) ([1]; C2C12, 20 uM) | reduction in cellular viability ([1]; 10 μM) | reduction in cellular viability ([1]; 20 μM) | REV-ERB regulated genes still regulated in Rev-erbα/β DKO hepatocytes (REV-ERB regulated genes) [%] | Bmal1 (Fig. 2c) expression (BMAL1 in HepG2 cells) | cell viability (Fig 2a source data) (HepG2 cells; HepG2, 1uM, listed as SR009) | cell viability (Fig 2a source data) (HepG2 cells; HepG2, 2uM, listed as SR909) | cell viability (Fig 2a source data) (HepG2 cells; HepG2, 5uM) | cell viability (Fig 2a source data) (HepG2 cells; HepG2, 10uM) | cell viability (Fig 2a source data) (HepG2 cells; HepG2, 20uM) | reduction in cell viability (HepG2 cells; HepG2 cells, 10 and 20 μM) | response (Normalized RLU) [2]
1 | CCOC(=O)N1CCC(CN(Cc2ccc(Cl)cc2)Cc2ccc([N+](=O)[O-])s2)C1 (centres unmarked) [SR9009, reference compound] | 96.141 and 87.1558 and 95.0006 and 119.571 and 103.64 | 73.3671 and 83.0434 and 96.4175 and 95.0006 and 98.2145 and 106.301 and 112.141 and 107.994 | 97.5233 and 96.3829 and 104.02 and 104.331 and 114.111 and 109.239 and 109.791 and 104.884 | 81.4883 and 68.2525 and 56.4681 and 49.4183 and 62.032 and 78.1707 and 78.3435 and 86.2228 | 29.4436 and 32.6575 and 37.392 and 34.0399 and 33.6597 and 55.6387 and 64.9695 and 68.7363 | ~ 25% | ~ 50% | 39 | 0.6576 and 0.6833 and 0.6229 and 0.6990 | 97.2789 and 85.5104 and 113.189 and 114.805 and 107.077 and 107.33 and 98.8951 and 92.8847 | 100.006 and 84.3488 and 101.774 and 112.583 and 88.7935 and 85.3589 and 86.1671 and 96.3697 | 99.2992 and 90.5108 and 87.6823 and 102.582 and 76.621 and 82.8335 and 95.5616 and 87.3793 | 106.875 and 80.1566 and 109.199 and 93.9453 and 73.8936 and 70.661 and 84.7528 and 82.682 | 91.723 and 73.742 and 95.107 and 95.2585 and 84.7528 and 75.1058 and 92.3796 and 105.158 | ~ 10% | –
2 | full length human REV-ERBα fused to the GAL4 DNA-binding domain (wild type) (from UniProt P20393) F443A | – | – | – | – | – | – | – | – | – | – | – | – | – | – | – | 7
3 | full length human REV-ERBα fused to the GAL4 DNA-binding domain (wild type) (from UniProt P20393) F488A | – | – | – | – | – | – | – | – | – | – | – | – | – | – | – | 73
